# Test results taken from patent US20240398814A1, “KRAS INHIBITOR AND HDAC INHIBITOR COMBINATION FOR THE TREATMENT OF CANCER” (Northwestern University, priority 2023, published 2024).
# Columns and labels:
# KL LJE1 cells [1] = assay: RNA-seq of drug-treated KL LJE1 cells (TIER genes); type: cell-based, mouse; details: adj. p-value<0.05, 10 nM trametinib
# Method: All cell lines were incubated at 37° C. and were maintained in an atmosphere containing 5% CO2. Cells were tested for Mycoplasma (Lonza) using manufacturer's conditions and were deemed negative. Cells were grown in Dulbecco's modified Eagles medium (DMEM) plus 10% fetal bovine serum (Gibco) and were continuously maintained under antibiotic selection for stable cell lines. Proliferation assays were performed by plating 2×10^3 cells per well of a 6-well plate, and cells were counted 5 days post-plating. […]
# mRNA was collected from cells harvested within 2 passages post-thaw. mRNA was isolated using the Quick-RNA Miniprep kit (Zymo Research), including DNase treatment. RNA integrity (RIN) numbers were determined using the Agilent TapeStation prior to library preparation. mRNA-seq libraries were prepared using the TruSeq RNA library preparation kit (version 2), according to the manufacturer's instructions (Illumina). Libraries were quantified, pooled, and sequenced by single-end 50 base pairs using the Illumina HiSeq 2500 platform at the Salk Next-Generation Sequencing Core. […]
# Sequenced reads were quality-tested using the online FASTQC tool (bioinformatics.babraham.ac.uk/projects/fastqc) and aligned to the mouse mm10 genome using the STAR aligner version 2.4.0k (Ref. 81; incorporated by reference in its entirety). […]
# KL LJE1 cells [2] = assay: Western blot and qRT-PCR of FGFR1, NKX2-1 and ERK phosphorylation in drug-treated KL LJE1 cells; type: cell-based, mouse
# Method: (§1) All cell lines were incubated at 37° C. and were maintained in an atmosphere containing 5% CO2. Cells were tested for Mycoplasma (Lonza) using manufacturer's conditions and were deemed negative. Cells were grown in Dulbecco's modified Eagles medium (DMEM) plus 10% fetal bovine serum (Gibco) and were continuously maintained under antibiotic selection for stable cell lines. Proliferation assays were performed by plating 2×10^3 cells per well of a 6-well plate, and cells were counted 5 days post-plating. Drug treatments were carried out using the following doses: entinostat 1 uM or 2 uM, RGFP966 10uM, TSA 0.5 uM, BRD3308 5 uM, trametinib 5 nM, 10 nM, and 25 nM, and MRTX1133 10 nM, 25 nM, and 50 nM, as indicated for the indicated treatment lengths. Media was changed and fresh drug added every 2 days.
# (§2) mRNA was prepared using the Quick-RNA Miniprep kit (Zymo Research), including DNase treatment. cDNA was synthesized from 2 μg of RNA using SuperScript III (Life Technologies), and qPCR was carried out with diluted cDNA, appropriate primers, and SYBR Green PCR master mix (ThermoFisher Scientific) using a C1000 Thermal Cycler (BioRad). Relative mRNA levels were calculated using the delta Ct method, using Tbp as an internal control.
# (§3) Protein lysates in CST buffer (20 mM Tris pH 7.5, 150 mM NaCl, 1% Triton X-100, 50 mM NaF, 1 mM EDTA, 1 mM EGTA, 2.5 mM PyroPhosphate, 2 mM beta-glycerol-phosphate, 1 mM orthovanadate, 0.01 mM Calyculan A) with protease inhibitors were equilibrated for protein levels using a BCA protein assay kit (Pierce), resolved on 8% SDS-PAGE gels, and transferred to membrane. Membranes were blocked in milk, incubated o/n at 4C in diluted primary antibody, washed with TBS-T, incubated 1 hr in secondary antibody diluted in TBS-T plus milk, washed in TBS-T, and developed using SuperSignal ECL. Secondary antibodies: anti-rabbit (Millipore AP132P) and anti-mouse (Millipore AP124P). Nuclear fractions were isolated using a NE-PER nuclear and cytoplasmic extraction kit (Thermofisher) under manufacturers conditions.
# KL LJE1 cells [3] = assay: qRT-PCR of chemokine (HRCG) gene expression in KL LJE1 cells; type: cell-based, mouse
# Method: as §1, §2
# human lung cancer cells = assay: FGFR1 resistance mechanism in human lung cancer cells; type: cell-based; details: 6 days of treatment
# NF-kB/p65 protein = assay: Western blot of p65 nuclear localisation and K310 acetylation in KL LJE1 cells; type: cell-based, mouse; details: for quantity of p65 protein in the nuclear fraction: Western blot, 6 hr, 2 uM entinostat, 10uM RGFP966, 0.5 uM TSA
# Method: as §3
# p65-expressing DNA constructs RelA-Flag (22) (Addgene 20012) and GFP-RelA (21) (Addgene 23255) were transiently transfected into KL LJE1 cells using Lipofectamine 2000 (Thermo Fisher Scientific) according to the manufacturer's protocol. Cells were treated with drug as indicated 24 hours after transfection.
# A549 cells = assay: qRT-PCR of chemokine gene expression in A549 cells; type: cell-based, human; details: 2 uM entinostat 3 days, 5 uM BRD3308 4 days
# Method: as §1, §2
# H460 cells = assay: qRT-PCR of chemokine gene expression in H460 cells; type: cell-based, human; details: 1 uM entinostat 4 days, 5 uM BRD3308 4 days
# Method: as §1, §2
# [4] = HDAC3 KO cells, 5 days, MRTX1133 10, 25, or 50 nM, trametinib 5, 10, or 25 nM
structure (smiles),measurement,setting,value
CC(=O)Nc1cccc(-n2c(=O)n(C3CC3)c(=O)c3c(Nc4ccc(I)cc4F)n(C)c(=O)c(C)c32)c1 [trametinib],genes upregulated upon 13 day trametinib compared to vehicle,KL LJE1 cells [1],"2,141 genes"
C#Cc1c(F)ccc2cc(O)cc(-c3ncc4c(N5CC6CCC(C5)N6)nc(OC[C@@]56CCCN5C[C@H](F)C6)nc4c3F)c12 [MRTX1133],FGFR1 resistance mechanism,KL LJE1 cells [2]; 1 day of treatment,induces the FGFR1 resistance mechanism in an HDAC3-dependent manner
same,FGFR1 resistance mechanism,KL LJE1 cells [2]; 5 days of treatment,induces the FGFR1 resistance mechanism in an HDAC3-dependent manner
same,ERK phosphorylation at Thr202/Tyr204,"KL LJE1 cells [2]; Western blot, 24 hr, 10 nM, 25 nM or 50 nM MRTX1133",on-target Kras inhibition
same,"HRCG expression, drug alone (NT cells)","KL LJE1 cells [3]; 5 days, MRTX1133 10, 25, or 50 nM",did not impact the expression of these genes
same,"HDAC3 KO-dependent induction of immunosuppressive HRCGs (Cxc15, Cxc1, Cxc12, Cxc13)",KL LJE1 cells [3]; [4],reversed the HDAC3-dependent induction
same,"HDAC3 KO-dependent induction of immunosurveillance-related HRCGs (Cc15, Cxc110)",KL LJE1 cells [3]; [4],expression was maintained in the presence of MRTX1133
same,FGFR1 resistance mechanism,human lung cancer cells,induces the FGFR1 resistance mechanism
Nc1cc(F)ccc1NC(=O)/C=C/c1cnn(C/C=C/c2ccccc2)c1 [RGFP966],chemokine (SASP) gene expression,"KL LJE1 cells [3]; 72 hr, 2 uM entinostat or 10uM RGFP966",robust induction of gene expression
same,quantity of p65 protein in the nuclear fraction,NF-kB/p65 protein,increased the quantity of p65 protein in the nuclear fraction
CC(=O)Nc1ccc(C(=O)Nc2ccc(F)cc2N)cc1 [BRD3308],gene expression induction in NT versus p65 KO cells,"KL LJE1 cells [3]; 3 days, 1 uM entinostat or 5 uM BRD3308",p65 facilitates maximal gene expression induction
same,chemokine (SASP) gene expression,A549 cells,induced the expression of these genes
same,chemokine (SASP) gene expression,H460 cells,induced the expression of these genes
same,acetylation of wildtype p65 at K310 (versus K310A mutant),"NF-kB/p65 protein; 5 hours, 1 uM entinostat or 5 uM BRD3308",induce acetylation of wildtype p65 at K310
"CC(/C=C/C(=O)NO)=C\[C@@H](C)C(=O)c1ccc(N(C)C)cc1 [TSA, trichostatin a]",quantity of p65 protein in the nuclear fraction,NF-kB/p65 protein,increased the quantity of p65 protein in the nuclear fraction
